SMILES strings stand for the structures.

The nature of one experiment: Antiproliferative activity against p53 deficient human HCT116 cells after 96 hrs by MTS assay. The experiment is classed as functional, cell-based. To be noted: HCT-116, 96 h. In general terms: Tetrazolium dyes change colour on reduction, which living cells bring about.
One may read the IC50 as the concentration needed to halve the response being measured. Read a low IC50 as greater potency in that assay. The compound `CC(=O)OC[C@H]1O[C@@H](Sc2ccc(N)cc2)[C@H](OC(C)=O)[C@@H](OC(C)=O)[C@@H]1OC(C)=O` registered a half-inhibitory concentration (IC50) of over 150 µM.

In the case of `CC(=O)OC[C@H]1O[C@@H](Sc2ccc(NC(=O)c3ccc4nc(C)ccc4c3O)cc2)[C@H](OC(C)=O)[C@@H](OC(C)=O)[C@@H]1OC(C)=O`, the IC50 was over 25 µM.

As to `Cc1ccc2ccc(C(=O)N[C@@H]3O[C@H](CO)[C@@H](O)[C@H](O)[C@H]3O)c(O)c2n1`, the IC50 was over 750 µM.

`CC(=O)OC[C@H]1O[C@@H](SC(=O)c2ccc3nc(C)ccc3c2O)[C@H](OC(C)=O)[C@@H](OC(C)=O)[C@@H]1OC(C)=O` returned an IC50 of over 25 µM.

For `CC(=O)OC[C@H]1O[C@@H](Sc2ccc(N)cn2)[C@H](OC(C)=O)[C@@H](OC(C)=O)[C@H]1OC(C)=O`, the IC50 is over 150 µM.

Take `CC(=O)OC[C@H]1O[C@@H](S)[C@H](OC(C)=O)[C@@H](OC(C)=O)[C@@H]1OC(C)=O`: the IC50 was over 500 µM.

`CC(=O)OC[C@H]1O[C@@H](N)[C@H](OC(C)=O)[C@@H](OC(C)=O)[C@@H]1OC(C)=O` came in with a half-inhibitory concentration (IC50) of over 300 µM.

Compound `CC(=O)OC[C@H]1O[C@@H](Sc2ccc(N)cc2)[C@H](OC(C)=O)[C@@H](OC(C)=O)[C@H]1OC(C)=O` came in with an IC50 of over 150 µM.

Compound `CC(=O)OC[C@H]1O[C@@H](SC(=O)c2ccc3ccc(C)nc3c2O)[C@H](OC(C)=O)[C@@H](OC(C)=O)[C@H]1OC(C)=O` gave a concentration for half-maximal inhibition (IC50) of over 25 µM.

On to `CC(=O)OC[C@H]1O[C@@H](Sc2ccc(N)cn2)[C@H](OC(C)=O)[C@@H](OC(C)=O)[C@@H]1OC(C)=O`, for which the IC50 is over 150 µM.

Compound `CC(=O)OC[C@H]1O[C@@H](SC(=O)c2ccc3nc(C)ccc3c2O)[C@H](OC(C)=O)[C@@H](OC(C)=O)[C@H]1OC(C)=O` came in with an IC50 of over 25 µM.

Another experiment is described as follows: Antiproliferative activity against p53 expressing human HCT116 cells after 96 hrs by MTS assay. In kind it is functional, cell-based. To be noted: HCT-116, 96 h.
`CC(=O)OC[C@H]1O[C@@H](Sc2ccc(N)cc2)[C@H](OC(C)=O)[C@@H](OC(C)=O)[C@@H]1OC(C)=O` returned a concentration for half-maximal inhibition (IC50) of over 150 µM.

On to `CC(=O)OC[C@H]1O[C@@H](Sc2ccc(NC(=O)c3ccc4nc(C)ccc4c3O)cc2)[C@H](OC(C)=O)[C@@H](OC(C)=O)[C@@H]1OC(C)=O`, for which the IC50 was over 25 µM.

In the case of `Cc1ccc2ccc(C(=O)N[C@@H]3O[C@H](CO)[C@@H](O)[C@H](O)[C@H]3O)c(O)c2n1`, the IC50 was over 750 µM.

Compound `CC(=O)OC[C@H]1O[C@@H](SC(=O)c2ccc3nc(C)ccc3c2O)[C@H](OC(C)=O)[C@@H](OC(C)=O)[C@@H]1OC(C)=O` showed a half-inhibitory concentration (IC50) of over 25 µM.

`CC(=O)OC[C@H]1O[C@@H](Sc2ccc(N)cn2)[C@H](OC(C)=O)[C@@H](OC(C)=O)[C@H]1OC(C)=O` registered an IC50 of over 150 µM.

Turning to `CC(=O)OC[C@H]1O[C@@H](S)[C@H](OC(C)=O)[C@@H](OC(C)=O)[C@@H]1OC(C)=O`, the IC50 is over 750 µM.

On to `CC(=O)OC[C@H]1O[C@@H](N)[C@H](OC(C)=O)[C@@H](OC(C)=O)[C@@H]1OC(C)=O`, for which the 50% inhibitory concentration (IC50) is over 450 µM.

As to `CC(=O)OC[C@H]1O[C@@H](Sc2ccc(N)cc2)[C@H](OC(C)=O)[C@@H](OC(C)=O)[C@H]1OC(C)=O`, the IC50 was over 150 µM.

`CC(=O)OC[C@H]1O[C@@H](SC(=O)c2ccc3ccc(C)nc3c2O)[C@H](OC(C)=O)[C@@H](OC(C)=O)[C@H]1OC(C)=O` yielded an IC50 of over 25 µM.

`CC(=O)OC[C@H]1O[C@@H](Sc2ccc(N)cn2)[C@H](OC(C)=O)[C@@H](OC(C)=O)[C@@H]1OC(C)=O` showed an IC50 of over 150 µM.

In turn, `CC(=O)OC[C@H]1O[C@@H](SC(=O)c2ccc3nc(C)ccc3c2O)[C@H](OC(C)=O)[C@@H](OC(C)=O)[C@H]1OC(C)=O` had an IC50 of over 25 µM.

For the origin of these results see ChEMBL document CHEMBL3774385, “Small molecule glycoconjugates with anticancer activity” (Eur J Med Chem, 2016).
